From US8338473B2, “Derivatives of psammaplin A, a method for their synthesis and their uses for the prevention or treatment of cancer” (Centre National de la Recherche Scientifique, priority 2007, dated 2012)
Like-named read-outs stand apart in the source and are kept apart here.

Legend:
human recombinant SIRT1 = human recombinant SIRT1 (Homo sapiens, UniProt Q96EB6); assay: SIRT activity assay, SIRT1; type: biochemical
Protocol: FIG. 13A: % of SIRT1 and SIRT2 activity with controls, sodium suramine, a sirtuin inhibitor, and resveratrol a SIRT1 activator, and with UVI5008 at concentrations of 50 μM and 5 μM.
The SIRT activity assay was performed using the human recombinant SIRT1 and SIRT2. SIRT1 (1 U/well) or SIRT2 (5 U/well), respectively, were incubated (37° C. for 1 h) with the SIRT1/2 substrate (corresponding to a p53 acetylated peptide) in the presence of NAD^+ and various concentrations of tested compounds (sirtuins activators or inhibitors). Activity was measured as fluorescence intensity. As internal controls, sodium suramin, a sirtuin inhibitor, and resveratrol, a SIRT1 activator, have been included. The fluorescence was measured on a fluorometric reader (Inphinite 200 TECAN) with excitation set at 360 nm and emission detection set at 460 nm

p21WAF1/CIP1 = assay: p21 expression, Western blot in U937 cells; type: cell-based, human; conditions: U937, 6 and 16 hrs
Protocol: (§1) FIG. 1: a) Cell cycle analysis of U937 cells treated for 30 hrs with the indicated compounds used at 1 and 5 μM; b) Caspase 3 apoptotic assay of the indicated compounds after 24 hrs of treatment in the U937 cells; c) Tubulin acetylation and p21 expression levels at 6 and 16 hrs after treatment with the indicated compounds; total tubulin expression levels are used for equal loading; d) Histone H3 acetylation and K9 H3 methylation expression levels at 6 and 16 hrs after treatment with the indicated compounds; total tubulin expression levels are used for equal loading; e) K9, K14, K18 histone H3 acetylation expression levels at 6 and 16 hrs after treatment with the indicated compounds; total ERKs expression levels are used for equal loading; f) HDAC1 enzymatic assay: IP-HDAC1 is incubated with the indicated inhibitors for 24 Hrs; activity is measured as ^3H-acetyl release; g) HDAC4 enzymatic assay: IP-HDAC4 is incubated with the indicated inhibitors for 24 hrs; activity is measured as ^3H-acetyl release.
FIG. 3: a) Cell cycle and apoptosis analysis carried out in U937 cells after 24 hrs with the indicated compounds; values are media of independent triplicates; b) CD11c expression analysis carried out in U937 cells with the indicated compounds; values are media of independent duplicates; c) Tubuline acetylation and p21 expression levels in U937 cells after 24 hrs with the indicated treatments; total ERKs expression levels are used for equal loading; d) acetylation of histone H3 under the conditions indicated in (c).
For the determination of p21^WAF1/CIP1 and p16^INK4 100 μg of total protein extracts were separated on a 15% polyacrylammide gels and blotted. Western blots were shown for p21 (Transduction Laboratories, dilution 1:500), p16 (Santa Cruz) and total ERKs (Santa Cruz) were used to normalise for equal loading. For alpha-tubulin acetylation 25 μg of total protein extracts were separated on a 10% polyacrylamide gels and blotted. […]

[1] = test system: breast cancer cells (ZR75.1); assay: Anti-proliferative and apoptogenic action in breast cancer cells; type: cell-based; conditions: data not shown
HDAC4 = HDAC4 (Homo sapiens, UniProt P56524); assay: HDAC4 enzymatic assay (IP-HDAC4, 3H-acetyl release); type: biochemical; conditions: IP-HDAC4 incubated with inhibitor 24 hrs
Sequence of HDAC4 (P56524 whole entry, species assumed): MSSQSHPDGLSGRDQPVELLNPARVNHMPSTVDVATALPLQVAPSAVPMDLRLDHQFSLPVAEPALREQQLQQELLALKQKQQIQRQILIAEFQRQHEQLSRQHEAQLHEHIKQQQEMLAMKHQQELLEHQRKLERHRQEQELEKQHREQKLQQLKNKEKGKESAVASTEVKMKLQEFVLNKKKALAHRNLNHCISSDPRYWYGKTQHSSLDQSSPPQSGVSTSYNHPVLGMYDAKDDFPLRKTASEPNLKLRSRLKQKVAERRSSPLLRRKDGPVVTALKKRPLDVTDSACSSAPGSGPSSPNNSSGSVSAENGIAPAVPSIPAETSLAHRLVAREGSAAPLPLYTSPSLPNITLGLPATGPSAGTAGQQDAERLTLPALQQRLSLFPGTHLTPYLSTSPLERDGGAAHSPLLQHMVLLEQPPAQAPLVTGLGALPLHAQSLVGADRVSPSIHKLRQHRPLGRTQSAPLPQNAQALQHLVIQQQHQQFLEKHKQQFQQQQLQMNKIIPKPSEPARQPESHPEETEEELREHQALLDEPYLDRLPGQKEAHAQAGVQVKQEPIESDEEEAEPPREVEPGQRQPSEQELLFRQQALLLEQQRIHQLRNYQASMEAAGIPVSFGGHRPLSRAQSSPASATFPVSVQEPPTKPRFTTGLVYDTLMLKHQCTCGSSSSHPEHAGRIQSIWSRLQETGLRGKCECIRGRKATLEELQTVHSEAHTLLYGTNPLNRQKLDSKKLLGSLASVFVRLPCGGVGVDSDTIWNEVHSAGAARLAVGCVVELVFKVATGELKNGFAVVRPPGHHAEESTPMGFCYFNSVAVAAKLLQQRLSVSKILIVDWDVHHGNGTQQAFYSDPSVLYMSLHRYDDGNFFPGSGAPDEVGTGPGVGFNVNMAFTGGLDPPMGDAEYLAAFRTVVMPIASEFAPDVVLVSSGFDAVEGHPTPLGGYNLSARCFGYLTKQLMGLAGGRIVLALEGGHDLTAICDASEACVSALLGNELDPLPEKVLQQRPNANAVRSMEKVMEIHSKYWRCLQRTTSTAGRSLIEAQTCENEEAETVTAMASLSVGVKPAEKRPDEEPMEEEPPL
Sequence of HDAC4 (O15379 whole entry partner, species assumed): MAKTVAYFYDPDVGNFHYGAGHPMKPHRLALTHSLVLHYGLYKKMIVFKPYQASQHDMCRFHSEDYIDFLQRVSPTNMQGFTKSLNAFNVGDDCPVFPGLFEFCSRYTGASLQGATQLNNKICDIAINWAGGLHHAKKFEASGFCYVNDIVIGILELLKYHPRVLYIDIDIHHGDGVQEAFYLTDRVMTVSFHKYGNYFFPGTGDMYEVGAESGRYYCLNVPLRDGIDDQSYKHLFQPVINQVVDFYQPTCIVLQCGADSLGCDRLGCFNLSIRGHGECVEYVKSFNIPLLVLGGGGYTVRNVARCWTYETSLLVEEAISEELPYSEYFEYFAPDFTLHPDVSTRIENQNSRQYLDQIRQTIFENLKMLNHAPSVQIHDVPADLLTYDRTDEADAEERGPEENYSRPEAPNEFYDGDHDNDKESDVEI
Protocol: as §1

RARβ2 promoter = assay: Methylation specific PCR for the RARβ gene; type: cell-based; conditions: 16 and 24 hrs
Protocol: (§2) FIG. 2: a) Methylation specific PCR for the RARβ gene after 16 and 24 hrs of treatment with the indicated compounds; b) Methylation specific PCR for the p16 gene after 24 hrs of the indicated treatments. Samples are representative of real duplicates; c) p16 expression levels in U937 cells after 24 hrs with the indicated treatments; d) DNMT enzymatic in vitro assay carried out with 1.5 and 50 μM of the indicated compounds;
Cells were resuspended into 150 μl of TE (Tris 10 mM—EDTA 1 mM). 1.5 mL of lysis buffer (10 mM Tris pH 8.0—0.1 mM EDTA pH 8.0—0.5% SDS—20 μg/ml Rnase Dnase-free) were added, and after an incubation time of 1 h at 37° C., a second incubation at 56° C. with proteinase K at 100 μg/ml final concentration was performed over night. Proteins were removed by phenol-chloroform extraction. The genomic DNA was then precipitated with 0.2 vol. of 10M ammonium acetate and 2 vol. ethanol, and centrifuged at 13000 rpm for 5 min. The DNA pellet was washed with 70% ethanol, air dried and resuspended in nuclease free water at 4° C. on rocking table. The concentration was measured at 260 nm. […]
20 μg of genomic DNA (or in vitro methylated DNA) were mixed with 5.5 μl of 3M NaOH, the volume was adjusted to 55.5 μl with filtered water. […] The PCR product (10 μl+5 μl loading dye) was analyzed on 1.5% agarose gel.

[2] = test system: DNA methyltransferase (DNMT); assay: DNMT enzymatic in vitro assay; type: biochemical; conditions: 1.5 and 50 μM
Protocol: as §2

[3] = test system: HCT-116 colon carcinoma cells xenografted in immunoincompetent mice; conditions: for Normalised tumour weight: mean of n = 10
HCT-116 cells = assay: MTT cytotoxicity assay, HCT-116; conditions: read-out: IC50 values, MTT cytotoxicity assay; HCT-116, 48 h

Sequence of human recombinant SIRT1 (Q96EB6 whole entry): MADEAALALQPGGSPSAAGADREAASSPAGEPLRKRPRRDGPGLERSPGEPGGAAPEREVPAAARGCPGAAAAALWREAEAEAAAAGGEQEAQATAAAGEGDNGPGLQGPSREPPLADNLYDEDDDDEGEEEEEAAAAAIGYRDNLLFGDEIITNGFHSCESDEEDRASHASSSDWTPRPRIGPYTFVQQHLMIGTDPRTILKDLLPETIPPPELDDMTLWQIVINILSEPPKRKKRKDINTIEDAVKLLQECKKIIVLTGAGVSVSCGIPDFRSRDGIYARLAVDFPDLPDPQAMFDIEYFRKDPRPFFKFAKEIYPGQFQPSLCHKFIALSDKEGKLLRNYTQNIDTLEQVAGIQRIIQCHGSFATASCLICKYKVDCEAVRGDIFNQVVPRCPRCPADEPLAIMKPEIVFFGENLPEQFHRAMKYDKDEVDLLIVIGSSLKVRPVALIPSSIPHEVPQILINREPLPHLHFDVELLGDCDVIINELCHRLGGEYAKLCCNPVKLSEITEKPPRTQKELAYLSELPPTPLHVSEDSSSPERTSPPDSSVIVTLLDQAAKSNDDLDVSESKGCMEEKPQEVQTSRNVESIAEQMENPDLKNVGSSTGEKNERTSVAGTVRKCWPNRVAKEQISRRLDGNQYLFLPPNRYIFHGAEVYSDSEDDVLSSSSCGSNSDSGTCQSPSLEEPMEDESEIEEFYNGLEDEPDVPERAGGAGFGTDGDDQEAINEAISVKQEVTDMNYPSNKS

SMILES: O=C(NCCSSCCNC(=O)C(Cc1c[nH]c2ccc(Br)cc12)=NO)C(Cc1c[nH]c2ccc(Br)cc12)=NO [UVI5008]
- IC50 (human recombinant SIRT1): 8.9 µM
- expression of p21WAF1/CIP1 (p21WAF1/CIP1): dramatically increased
- anti-proliferative and apoptogenic action [1]: confirmed
- HDAC4 deacetylase activity inhibition (HDAC4): nearly completely blocked
- unmethylated RARβ2 (MSP) (RARβ2 promoter): significant increase
- DNMT inhibition [2]: nearly as active as RG108 albeit at higher concentrations
- Percent Growth Inhibition after 22 days ([3]; 40 mg/kg i.p. every second day): 56 ± 7%
- animals with signs of toxicity (accumulation of intra peritoneal fluid) ([3]; 40 mg/kg i.p. every second day): 3 animals out of 10
- Normalised tumour weight ([3]; day 1, 40 mg/kg i.p. every second day): 100 ± 21.5 mg
- Normalised tumour weight ([3]; day 4, 40 mg/kg i.p. every second day): 180.55 ± 43 mg
- Normalised tumour weight ([3]; day 12, 40 mg/kg i.p. every second day): 548.73 ± 109.8 mg
- Normalised tumour weight ([3]; day 17, 40 mg/kg i.p. every second day): 915.28 ± 196.8 mg
- Normalised tumour weight ([3]; day 22, 40 mg/kg i.p. every second day): 1684.79 ± 262.1 mg
- anti tumoral activity compared with the reference compounds ([3]; each compound at its MTD): greater anti tumoral activity with respect to SAHA and MS-275
- IC50 (HCT-116 cells): 1.8 ± 0.1 µM
